Data: US9447156B2, “Methods and compositions for inhibiting neddylation of proteins” (St. Jude Children's Research Hospital, priority 2011, dated 2016)
No end group written: not given here.

Tests used:
yDcn1^P = molecular target: T1, yDcn1^P (Saccharomyces cerevisiae, UniProt Q12395); test: ITC binding of Ubc12 peptides to yDcn1^P; set-up: species or system S. cerevisiae; details: for ΔH / ΔS: ITC, protein yDcn1^P; for ΔH: change in enthalpy; for ΔS: change in entropy
T1 construct: made in house; host or cells: E. coli
T1 sequence (Q12395 70-269): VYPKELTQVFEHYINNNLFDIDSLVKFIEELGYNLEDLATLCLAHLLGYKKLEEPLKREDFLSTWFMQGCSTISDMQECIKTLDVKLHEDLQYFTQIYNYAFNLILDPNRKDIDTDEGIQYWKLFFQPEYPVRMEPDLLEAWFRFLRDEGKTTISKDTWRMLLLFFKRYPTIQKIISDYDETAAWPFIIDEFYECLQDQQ
Procedure: (§1) Protein samples were buffer matched by desalting over a NAP-5 column (GE Healthcare) into 50 mM Hepes, 125 mM NaCl, 1 mM BME, pH 7.0 (ITC buffer). Peptides were dissolved by weight to a final concentration of 10 mM in ITC buffer and diluted further in ITC buffer as required for the experiments. […] The peptide ligands (4 mM) were constantly injected (1.5 μl). The interval time between each injection was 3 minutes and the duration of each injection was 3 seconds. For titrations involving hE1 and yE1, proteins were placed into the sample cell at a final concentration of 25 μM at 22° C. Peptide ligands (250 μM) were constantly injected (2.5 μl). The interval time between each injection was three minutes and the duration of each injection was 5 seconds. For hCul1^ctd-Rbx1:hDcn1^P binding, proteins were buffer matched by desalting over a NAP-5 column in 25 mM Tris, 0.1 M NaCl, 1 mM BME, pH 7.6. hCul1^ctd-Rbx1 was placed into the sample cell at a final concentration of 55 μM at 22° C. […]) was constantly injected (2.5 μl). The interval time between each injection was 3 minutes and the duration of each injection was 5 seconds.

[1] = molecular target: T2, yE1 for yNedd8 (Ula1Uba3) (Saccharomyces cerevisiae, UniProt Q99344); test: ITC binding of Ubc12 peptides to yE1; set-up: species or system S. cerevisiae; details: for ΔH / ΔS: ITC, protein yE1; for ΔH: change in enthalpy; for ΔS: change in entropy
T2 construct: made in house; host or cells: E. coli
T2 sequence (Q99344 1-299): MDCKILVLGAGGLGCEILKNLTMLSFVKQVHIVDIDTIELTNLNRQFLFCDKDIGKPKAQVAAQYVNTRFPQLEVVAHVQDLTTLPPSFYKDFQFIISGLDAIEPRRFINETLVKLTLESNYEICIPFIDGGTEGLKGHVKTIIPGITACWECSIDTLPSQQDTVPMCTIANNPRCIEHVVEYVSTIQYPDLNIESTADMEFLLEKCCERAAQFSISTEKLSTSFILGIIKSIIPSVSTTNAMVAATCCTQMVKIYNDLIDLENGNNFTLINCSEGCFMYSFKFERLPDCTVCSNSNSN
T2 sequence (Q12059 1-462 partner): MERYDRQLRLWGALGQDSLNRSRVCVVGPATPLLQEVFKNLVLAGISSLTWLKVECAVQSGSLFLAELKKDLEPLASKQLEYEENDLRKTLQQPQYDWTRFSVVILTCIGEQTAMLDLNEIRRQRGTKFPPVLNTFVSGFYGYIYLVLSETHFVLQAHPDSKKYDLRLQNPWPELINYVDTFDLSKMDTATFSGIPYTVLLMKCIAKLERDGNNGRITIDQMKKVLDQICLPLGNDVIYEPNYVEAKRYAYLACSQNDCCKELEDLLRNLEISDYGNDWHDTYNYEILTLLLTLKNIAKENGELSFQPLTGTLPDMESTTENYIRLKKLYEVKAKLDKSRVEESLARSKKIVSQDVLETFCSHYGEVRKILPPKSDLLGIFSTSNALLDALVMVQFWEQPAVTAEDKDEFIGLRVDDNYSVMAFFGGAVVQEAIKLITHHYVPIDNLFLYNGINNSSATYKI
Procedure: as §1

hDcn3^P = molecular target: T3, hDcn3^P (Homo sapiens, UniProt Q8IWE4); test: ITC binding of peptides to hDcn3^P
T3 sequence (Q8IWE4 86-304): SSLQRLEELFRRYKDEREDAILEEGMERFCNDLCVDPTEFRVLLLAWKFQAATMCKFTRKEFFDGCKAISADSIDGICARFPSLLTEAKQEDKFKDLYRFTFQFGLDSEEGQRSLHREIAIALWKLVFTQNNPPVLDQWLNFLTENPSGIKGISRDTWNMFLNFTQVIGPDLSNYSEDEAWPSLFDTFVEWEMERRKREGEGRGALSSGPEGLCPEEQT
Procedure: (§2) Protein samples were buffer matched by desalting over a NAP-5 column (GE Healthcare) into 50 mM Hepes, 125 mM NaCl, 1 mM BME, pH 7.0 (ITC buffer). Peptides were dissolved by weight to a final concentration of 10 mM in ITC buffer and diluted further in ITC buffer as required for the experiments. Measurements were performed using a MicroCal ITC200. hDcn1^P or yDcn1^P were placed into the sample cell at a final concentration of 400 μM at 18° C. The peptide ligands (4 mM) were constantly injected (1.5 μl). The interval time between each injection was 3 minutes and the duration of each injection was 3 seconds. For titrations involving hE1 and yE1, proteins were placed into the sample cell at a final concentration of 25 μM at 22° C. Peptide ligands (250 μM) were constantly injected (2.5 μl). The interval time between each injection was three minutes and the duration of each injection was 5 seconds. For hCul1^ctd-Rbx1:hDcn1^P binding, proteins were buffer matched by desalting over a NAP-5 column in 25 mM Tris, 0.1 M NaCl, 1 mM BME, pH 7.6. hCul1^ctd-Rbx1 was placed into the sample cell at a final concentration of 55 μM at 22° C. hDcn1^P (550 μM) was constantly injected (2.5 μl). The interval time between each injection was 3 minutes and the duration of each injection was 5 seconds. Obtained spectra were evaluated using Origin (V 7.0) to determine heats of binding and Kd values.
(§3) The affinity of various peptides for hDcn1^P, hDcn2^P, hDcn3^P, hDcn4^P, and hDcn5^P was tested using isothermal titration calorimetry as described in Example 1 and is provided in Table 29.

hDcn2^P = molecular target: T4, hDcn2^P (Homo sapiens, UniProt Q6PH85); test: ITC binding of peptides to hDcn2^P; details: Example 3
T4 construct: human Dcn1 family members 1-5 (also called DCUND1-DCUND5)
T4 sequence (Q6PH85 62-259): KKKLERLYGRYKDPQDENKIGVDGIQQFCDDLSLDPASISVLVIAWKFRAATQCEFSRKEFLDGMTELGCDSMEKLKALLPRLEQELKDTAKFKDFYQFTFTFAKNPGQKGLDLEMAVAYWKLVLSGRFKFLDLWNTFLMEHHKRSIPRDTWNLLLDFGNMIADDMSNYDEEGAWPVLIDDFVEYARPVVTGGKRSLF
Procedure: as §2, §3

hDcn1^P = molecular target: T5, hDcn1^P (Homo sapiens, UniProt Q96GG9); test: ITC binding of Ubc12/Ube2f peptides to hDcn1^P; details: Example 3
T5 construct: hDcn1^P corresponds to residues 62 to the C-terminal residue 259 of hDcn1; GST (cleaved yes); made in house; host or cells: E. coli BL21(DE3)Gold
T5 sequence (Q96GG9 62-259): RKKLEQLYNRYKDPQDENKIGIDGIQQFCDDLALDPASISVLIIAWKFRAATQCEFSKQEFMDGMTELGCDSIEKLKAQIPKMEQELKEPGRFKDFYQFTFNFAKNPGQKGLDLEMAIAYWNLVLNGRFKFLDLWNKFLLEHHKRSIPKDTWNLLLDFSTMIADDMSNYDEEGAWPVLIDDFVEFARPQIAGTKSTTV
Procedure: as §2, §3

hDcn5^P = molecular target: T6, hDcn5^P (Homo sapiens, UniProt Q9BTE7); test: ITC binding of peptides to hDcn5^P; details: Table 29, peptides with amidated carboxy-terminus
T6 construct: human Dcn1 family members 1-5 (also called DCUND1-DCUND5)
T6 sequence (Q9BTE7 47-237): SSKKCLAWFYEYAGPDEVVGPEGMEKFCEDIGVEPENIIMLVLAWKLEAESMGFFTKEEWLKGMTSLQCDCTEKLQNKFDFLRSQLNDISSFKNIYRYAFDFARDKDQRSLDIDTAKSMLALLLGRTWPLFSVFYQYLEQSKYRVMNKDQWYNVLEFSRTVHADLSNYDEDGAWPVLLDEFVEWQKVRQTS
Procedure: as §2, with “values. […]” for “values.”

Compound	ΔH (yDcn1^P)	ΔS (yDcn1^P)	Kd [1]	ΔH [1]	ΔS [1]	other results
H-MLKLRQLQKKKQKENENSSSIQPN-NH2 [yUbc12^1-24]	3,777 cal/mol	33.4 cal/mol/deg	0.07 µM	−8,571 cal/mol	2.65 cal/mol/deg	Kd (yDcn1^P): > 40 µM
Ac-LKLRQLQKKKQKENENSSSIQPN-NH2 [Acetyl-yUbc12^2-24]	3,761 cal/mol	33.4 cal/mol/deg	1.58 µM	−9,625 cal/mol	−7.21 cal/mol/deg	Kd (yDcn1^P): > 37 µM
hUbe2fAcl-25: N-terminally acetylated human Ube2f residues 1-25 (Ac-MLTLASKLKRDDGLKGSRTAATASD-NH2)	–	–	–	–	–	affinity for Dcn3 (comparison in words) (hDcn3^P; Example 3): greatest affinity; binding specificity for Dcn3 over other co-E3 proteins (hDcn3^P; Example 3): fairly specific
Ac-MLKLRQLQKKKQKENENSSSIQPN-NH2 [yUbc12Ac1-24]	4,145 cal/mol	43.6 cal/mol/deg	0.016 µM	−11,260 cal/mol	−3.8 cal/mol/deg	affinity for Dcn2 (comparison in words) (hDcn2^P): greatest affinity; affinity for Dcn1 (comparison in words) (hDcn1^P): greatest affinity
MLTLASKLKRDDGLKGSRTAATASD-NH2 [hUbe2f^1−25]	–	–	–	–	–	Kd (hDcn3^P; Table 29, peptides with amidated carboxy-terminus): > 400 µM
hUbc12Ac1-26: N-terminally acetylated peptide of residues 1-26 of human Ubc12 (Ac-MIKLFSLKQQKKEEESAGGTKGSSKK-NH2)	–	–	–	–	–	affinity for Dcn2 (comparison in words) (hDcn2^P): greatest affinity; affinity for Dcn1 (comparison in words) (hDcn1^P): greatest affinity
CC[C@H](C)[C@H](NC(=O)[C@H](CCSC)NC(C)=O)C(=O)N[C@@H](CCCCN)C(=O)N[C@@H](CC(C)C)C(=O)N[C@@H](Cc1ccccc1)C(=O)N[C@@H](CO)C(=O)N[C@@H](CC(C)C)C(=O)N[C@@H](CCCCN)C(=O)N[C@@H](CCC(N)=O)C(=O)N[C@@H](CCC(N)=O)C(=O)N[C@@H](CCCCN)C(=O)N[C@@H](CCCCN)C(N)=O [hUbc12^Ac1−12]	–	–	–	–	–	Kd (hDcn5^P): > 30 µM
